These results are taken from paper PMC4234265, “The C-terminus of nisin is important for the ABC transporter NisFEG to confer immunity in Lactococcus lactis” (MicrobiologyOpen, 2014).

One assay relates to NZ9000Erm strain. Put plainly: Growth inhibition (IC50) of nisin and variants, sensitive strain. In kind it is cell-based, Lactococcus lactis. Particulars: from IC50 values against NZ9000Erm.
For the next assay, the system named is NZ9000NisFEG strain. Put plainly: Growth inhibition (IC50) of nisin and variants, NisFEG-expressing strain. In kind it is cell-based, Lactococcus lactis. The note with it: for Fold of immunity mediated by NisFEG: IC50 against NZ9000NisFEG compared with IC50 against NZ9000Erm; for Activity of NisFEG reduced to: fold of immunity for the variant relative to wild-type nisin. As to the method: The NZ9000NisFEG and NZ9000NisFH181AEG strains were grown in GM17 media supplemented with 5 μg/mL chloramphenicol to an OD600 of 0.8. By the addition of nisin (final concentration of 1 ng/mL), the expression was induced and the culture was further grown overnight. After 15 h, the cells were diluted to an OD600 of 0.1 in fresh media supplemented with 5 μg/mL chloramphenicol and with the inducer nisin (10 ng/mL).
The NZ9000, NZ9000NisFEG, and NZ9000NisFH181AEG strains were grown overnight in GM17 media supplemented with 5 μg/mL chloramphenicol in the presence of 1 ng/mL nisin. The diluted cells (final OD600 was 0.1) were incubated with a serial dilution of nisin or its variants with 50 mmol/L lactic acid in a 96 well microtiter plate. The total volume in each well was 200 μL, consisting of 50 μL nisin and 150 μL GM17 containing the corresponding L. lactis strain.
The plate was incubated at 30°C. After 5 h, the optical density was measured at 620 nm via 96-plate reader BMG. The normalized optical density was plotted against the logarithm of the nisin concentration in order to calculate the IC50 of nisin and the data was evaluated using the following equation (1): [drawing 1] 1
The IC50 value is the concentration of nisin were the growth of the L. lactis strain is inhibited by 50% as described in more detail earlier (Abts et al. [2011]).

Turning to `C=C1NC(=O)[C@H]([C@@H](C)CC)NC(=O)[C@H](NC(=O)/C(=C/C)NC(=O)[C@@H](N)[C@@H](C)CC)CSC[C@@H](C(=O)N[C@H]2C(=O)N3CCC[C@H]3C(=O)NCC(=O)N[C@H](C(=O)N[C@@H](CCCCN)C(=O)N[C@H]3C(=O)NCC(=O)N[C@@H](C)C(=O)N[C@@H](CC(C)C)C(=O)N[C@@H](CCSC)C(=O)NCC(=O)N[C@H](C(=O)N[C@@H](CC(N)=O)C(=O)N[C@@H](CCSC)C(=O)N[C@@H](CCCCN)C(=O)N[C@H]4C(=O)N[C@@H](C)C(=O)N[C@H]5C(=O)N[C@@H](CS[C@H]4C)C(=O)N[C@@H](Cc4c[nH]cn4)C(=O)N[C@H](C(=O)O)CS[C@H]5C)CS[C@H]3C)CS[C@H]2C)NC(=O)[C@H](CC(C)C)NC1=O` [Nisin1-28], the “Fold reduction of antimicrobial activity compared to wild-type nisin” value in the assay with NZ9000Erm strain stood at 20 fold. In the assay on NZ9000NisFEG strain, the “Fold of immunity mediated by NisFEG” value was 3.8 fold and the “Activity of NisFEG reduced to” value came out at 60%. The “Reduction of NisFEG activity / fold of immunity” value in the assay with NZ9000NisFEG strain (decrease relative to wild-type nisin) amounted to 50%.

On to `C=C1NC(=O)[C@H]([C@@H](C)CC)NC(=O)[C@H](NC(=O)/C(=C/C)NC(=O)[C@@H](N)[C@@H](C)CC)CSC[C@@H](C(=O)N[C@H]2C(=O)N3CCC[C@H]3C(=O)NCC(=O)N[C@H](C(=O)N[C@@H](CCCCN)C(=O)N[C@H]3C(=O)NCC(=O)N[C@@H](C)C(=O)N[C@@H](CC(C)C)C(=O)N[C@@H](CCSC)C(=O)NCC(=O)N[C@H](C(=O)N[C@@H](CC(N)=O)C(=O)N[C@@H](CCSC)C(=O)N[C@@H](CCCCN)C(=O)O)CS[C@H]3C)CS[C@H]2C)NC(=O)[C@H](CC(C)C)NC1=O` [Nisin1-22], for which the “Fold reduction of antimicrobial activity compared to wild-type nisin” value in the assay with NZ9000Erm strain worked out at 25 fold. In the assay on NZ9000NisFEG strain, the “Fold of immunity mediated by NisFEG” value is 2.5 fold and the “Activity of NisFEG reduced to” value amounted to 33%.
